The source of these data is patent US12522606B2, “Modified pyrrolo- and pyrazolo-pyrimidines for prostate cancer therapy” (University of Washington, priority 2020, dated 2026).

The nature of series [1]: Plasma protein binding, mouse. In kind it is in vitro ADME.
For the next series, the system named is LNCaP95. As to the kind of experiment: MTT proliferation assay, LNCaP95. The class given is cell-based. The following applies: Homo sapiens, LNCaP-95; for pEC50: Table 1, LNCaP95 (AR+ PCa), unit inferred; for inhibition at 10 µM: read-out: MTT % inhib @ 10 μM LNCaP95. The protocol:
Anti-tumor activity was determined by screening a series of compounds against the castrate-resistant, androgen-receptor-positive, prostate cancer cell line LNCaP95. […] Inhibition of proliferation was determined based on the level of LNCaP95 cell growth suppression using an MTT assay (NAD(P)H-dependent cellular oxidoreductase enzymatic activities)) read at 72 and 96 hours after addition of the compounds. […] Each cell line was be tested in quadruplicate.

The test system of the next series is PC3. Description: MTT proliferation assay, PC3. The following applies: Homo sapiens; for inhibition at 10 µM: PC-3, read-out: MTT % inhib @ 10 μM PC3; for pEC50: read-out: EC50 PC3.
Another series is described as follows: PK Oral (MMV). In kind it is in vivo. The following applies: for Cmax / Tmax: in vivo.
Series [2] in a line: in vitro. The conditions noted are these: human, HepG2 hepatoma cell line.
Excerpt: (§1) HepG2 is hepatoma liver tumor cell line. CRL8155 is lymphoblastoid cell line.
The nature of series [3]: in vitro. The following applies: human, CRL-8155 lymphoblastoid cell line.
Excerpt: as §1

pEC50: −log10 of the molar value.

In turn, `CNc1ncnc2c1c(-c1ccc(-c3ccc(Br)cc3)cc1)cn2CC(C)(C)OC` [Example 33, 5-(4′-bromobiphenyl-4-yl)-7-(2-methoxy-2-methylpropyl)-N-methyl-7H-pyrrolo[2,3-d]pyrimidin-4-amine] gave an unbound share (fraction unbound) in series [1] of 0.0064. In the series on LNCaP95, the negative logarithm of the EC50 (pEC50) was 5.30 and the inhibition at 10 µM amounted to 30.7%. Further, in the series on PC3, the inhibition at 10 µM turned out to be 11.4% and the pEC50 was below 4.70.

Consider `CCOCCNc1ncnc2c1c(-c1ccc3cc(OCC)ccc3c1)cn2CC(C)(C)O` [Example 31, 1-(4-(2-ethoxyethylamino)-5-(6-ethoxynaphthalen-2-yl)-7H-pyrrolo[2,3-d]pyrimidin-7-yl)-2-methylpropan-2-ol], for which, in the series on LNCaP95, the pEC50 was 5.00 and the inhibition at 10 µM came to 34.9%. Also, in the series on PC3, the inhibition at 10 µM was 14.9% and the pEC50 is below 4.70. Further, in the series “PK Oral (MMV)” (dose 25 mg/kg), the AUC was determined as 1724 µmol·min/L, the peak level (Cmax) was 7.8 µM and the Tmax is 1 h.

As for `CNc1ncnc2c1c(-c1cccc(Cl)c1)cn2CC(C)(C)OC` [Example 22, 5-(3-chlorophenyl)-7-(2-methoxy-2-methylpropyl)-N-methyl-7H-pyrrolo[2,3-d]pyrimidin-4-amine], the cytotoxic concentration (CC50) in “in vitro [2]” and in the series “in vitro [3]” was above 80 µM each time. In addition, the negative-log EC50 (pEC50) was 5.00 in the series on LNCaP95 and below 4.70 with PC3. The inhibition at 10 µM in the series on LNCaP95 is 40.1%; in the series with PC3, 4.3%.

In the case of `COCCOc1ncnc2c1c(-c1ccc(-c3ccccc3)cc1)cn2CC(C)(C)O` [Example 4, 1-(5-(biphenyl-4-yl)-4-(2-methoxyethoxy)-7H-pyrrolo[2,3-d]pyrimidin-7-yl)-2-methylpropan-2-ol], the pEC50 in the series with LNCaP95 was 5.30; in the series on PC3, below 4.70. For the same compound, the inhibition at 10 µM was 36.3% with LNCaP95 and 13% in the series with PC3. The same compound showed a 50% cytotoxic concentration (CC50) in “in vitro [3]” above 80 µM.

Compound `CNc1ncnc2c1c(-c1ccc3cc(OC(C)C)ccc3c1)cn2CC(C)(C)OC` [Example 32, 5-(6-isopropoxynaphthalen-2-yl)-7-(2-methoxy-2-methylpropyl)-N-methyl-7H-pyrrolo[2,3-d]pyrimidin-4-amine] had a fraction unbound in series [1] of 0.0069. For the same compound, in the series on LNCaP95, the negative-log EC50 (pEC50) is 5.52 and the inhibition at 10 µM was 5.1%. Also, in the series on PC3, the inhibition at 10 µM was determined as 14.6% and the pEC50 is below 4.70.

`CCOc1ccc2cc(-c3cn(CC(C)(C)OC)c4ncnc(NC)c34)ccc2c1` [Example 18, 5-(6-ethoxynaphthalen-2-yl)-7-(2-methoxy-2-methylpropyl)-N-methyl-7H-pyrrolo[2,3-d]pyrimidin-4-amine]: the half-maximal cytotoxic concentration (CC50) in “in vitro [2]” and in the series “in vitro [3]” was above 80 µM each time. Moreover, the fraction unbound in series [1] is 0.0077. Moreover, the negative-log EC50 (pEC50) with LNCaP95 was 5.52; with PC3 it was below 4.70. In addition, the inhibition at 10 µM in the series on LNCaP95 stood at 44.9%; in the series with PC3 it was 21%.

Regarding `CC(C)(O)Cn1cc(-c2ccc3cc(OC4CC4)ccc3c2)c2c(NCCOCCOCCOCCN)ncnc21` [Example 28, 1-(4-(2-(2-(2-(2-aminoethoxy)ethoxy)ethoxy)ethylamino)-5-(6-cyclopropoxynaphthalen-2-yl)-7H-pyrrolo[2,3-d]pyrimidin-7-yl)-2-methylpropan-2-ol], the 50% cytotoxic concentration (CC50) in the series “in vitro [2]” came out at 30.7 µM; in “in vitro [3]” it was 15.4 µM. In addition, the pEC50 is 5.40 with LNCaP95 and below 4.70 in the series with PC3. Besides, the inhibition at 10 µM in the series with LNCaP95 is 43%; in the series on PC3, -8.3%.

Take `CCOc1ncnc2c1c(-c1ccc3cc(OC4CC4)ccc3c1)cn2CC(C)(C)O` [Example 6, 1-(5-(6-cyclopropoxynaphthalen-2-yl)-4-ethoxy-7H-pyrrolo[2,3-d]pyrimidin-7-yl)-2-methylpropan-2-ol]: the CC50 in “in vitro [2]” was above 40 µM. In addition, in the series with LNCaP95, the negative-log EC50 (pEC50) is 5.00 and the inhibition at 10 µM was determined as 20.3%. In the series “in vitro [3]”, this compound yielded a CC50 above 40 µM. Further, in the series on PC3, the inhibition at 10 µM was 10.1% and the pEC50 was below 4.70. In addition, in “PK Oral (MMV)” (dose 24.6 mg/kg), the AUC is 400 µmol·min/L, the peak level (Cmax) was 17.6 µM and the time to peak (Tmax) is 1 h.

On to `CNc1ncnc2c1c(-c1ccc(-c3ccccc3)cc1)cn2CC(C)(C)O` [Example 13, 1-(5-(biphenyl-4-yl)-4-(methylamino)-7H-pyrrolo[2,3-d]pyrimidin-7-yl)-2-methylpropan-2-ol], for which the half-maximal cytotoxic concentration (CC50) in “in vitro [2]” and in the series “in vitro [3]” was above 80 µM in each case. The pEC50 was 4.92 in the series with LNCaP95 and below 4.70 with PC3. Further, the inhibition at 10 µM is 40.9% in the series on LNCaP95 and -4.3% in the series with PC3.

For `CCOc1ccc2cc(-c3cn(CC(C)(C)O)c4ncnc(OCC)c34)ccc2c1` [Example 5, 1-(4-ethoxy-5-(6-ethoxynaphthalen-2-yl)-7H-pyrrolo[2,3-d]pyrimidin-7-yl)-2-methylpropan-2-ol], the CC50 in “in vitro [2]” and in the series “in vitro [3]” was above 80 µM each time. The figures for the pEC50 with LNCaP95 and in the series with PC3 were 5.30 and below 4.70, respectively. In addition, the inhibition at 10 µM in the series with LNCaP95 is 50.9%; with PC3 it was -3.2%.

For the compound `CNc1ncnc2c1c(-c1ccc(-c3ccccc3)cc1)nn2CC(C)(C)O` [Example 12, 1-(3-(biphenyl-4-yl)-4-(methylamino)-1H-pyrazolo[3,4-d]pyrimidin-1-yl)-2-methylpropan-2-ol], the half-maximal cytotoxic concentration (CC50) in “in vitro [2]” and in “in vitro [3]” was above 80 µM in each case. Moreover, the negative-log EC50 (pEC50) is 4.92 in the series on LNCaP95 and below 4.70 in the series with PC3. Besides, the inhibition at 10 µM in the series with LNCaP95 turned out to be 36.7%; with PC3 it was 8.4%.

Consider `CCOc1ccc2cc(-c3cn(CC(C)(C)O)c4ncnc(OCCOC)c34)ccc2c1` [Example 3, 1-(5-(6-ethoxynaphthalen-2-yl)-4-(2-methoxyethoxy)-7H-pyrrolo[2,3-d]pyrimidin-7-yl)-2-methylpropan-2-ol], for which, in the series on LNCaP95, the negative-log EC50 (pEC50) was 5.15 and the inhibition at 10 µM was 36.5%. In the series on PC3, the inhibition at 10 µM amounted to 2.9% and the pEC50 was below 4.70. In addition, in “PK Oral (MMV)” (dose 25 mg/kg), the AUC came out at 2559 µmol·min/L, the Cmax came out at 5.1 µM and the time to peak (Tmax) is 0.667 h.

For `COCCOc1ncnc2c1c(-c1ccc3cc(OC4CC4)ccc3c1)cn2CC(C)(C)O` [Example 2, 1-(5-(6-cyclopropoxynaphthalen-2-yl)-4-(2-methoxyethoxy)-7H-pyrrolo[2,3-d]pyrimidin-7-yl)-2-methylpropan-2-ol], in the series “in vitro [2]”, the 50% cytotoxic concentration (CC50) was above 40 µM. Further, in the series with LNCaP95, the negative logarithm of the EC50 (pEC50) is 5.22 and the inhibition at 10 µM turned out to be 32%. The compound also registered a 50% cytotoxic concentration (CC50) in “in vitro [3]” above 40 µM. For the same compound, in the series on PC3, the inhibition at 10 µM turned out to be 12.8% and the pEC50 was below 4.70. In the series “PK Oral (MMV)” (dose 30.8 mg/kg), the AUC was determined as 822 µmol·min/L, the maximum concentration (Cmax) stood at 34.4 µM and the Tmax was 1 h.

For `CCOc1ccc2cc(-c3cn(CC(C)(C)O)c4ncnc(NCCN)c34)ccc2c1` [Example 23, 1-(4-(2-aminoethylamino)-5-(6-ethoxynaphthalen-2-yl)-7H-pyrrolo[2,3-d]pyrimidin-7-yl)-2-methylpropan-2-ol], in the series on LNCaP95, the negative logarithm of the EC50 (pEC50) was below 5.00 and the inhibition at 10 µM turned out to be 22.9%. In the series with PC3, the inhibition at 10 µM came out at 27.2% and the negative-log EC50 (pEC50) was below 4.70.

In the case of `CCOc1ccc2cc(-c3cn(CC(C)(C)O)c4ncnc(NC5CC5)c34)ccc2c1` [Example 41, 1-(4-(cyclopropylamino)-5-(6-ethoxynaphthalen-2-yl)-7H-pyrrolo[2,3-d]pyrimidin-7-yl)-2-methylpropan-2-ol], the negative logarithm of the EC50 (pEC50) in the series with LNCaP95 was 5.22; in the series with PC3, 5.00.
